Reference: US20260250519A1, “Copper Containing Compounds and Compositions for Antimicrobial Paint and Coating” (ARXADA, LLC, priority 2022, published 2026)

Columns and labels:
[1] = test system: Escherichia coli (ATCC 8739); experiment: Modified JIS Z2801, increased inoculum, Quat-containing matte wall paint; type: cell-based; conditions: Quat 5200 ppm, Cu 0 ppm in matte wall paint
Procedure: (§1) The antibacterial efficacies of copper-containing composition in dry paint film were evaluated using a modified JIS Z2801 method (Antimicrobial Product-Test for Antimicrobial Activity and Efficacy: 2000) by reducing contact time from 24 hour to 2 hour, including Pseudomonas aeruginosa as an additional bacteria and increasing inoculum strength to 5.0 to 10.0×10^7 cfm/mL. […] The paints were brushed onto the sterilized plastic filter paper. Each side of the filter paper was painted twice and the resulting coated paper was dried at ambient condition for 3 days. The dried coatings were then leached against 10 L water for 24 hours (4 water changes for the first 8 hour). Each of three (3) bacterial inoculum (0.4 mL): Escherichia coli (ATCC 8739), Staphylococcus aureus (ATCC 6538), Pseudomonas aeruginosa (ATCC 15442) was used to inoculate the dry film (40 mm×40 mm) of test paint to achieve 5.0 to 10.0×10^7 cfm/mL of inoculum concentration per each bacteria on dry surface of each test paint. The test paints were incubated at 35±1° C. and 90% RH for 2 hour. The degrees of bacterial contamination were determined relative to blank paint via viable cell count of bacteria by agar plate culture method.

[2] = test system: Pseudomonas aeruginosa (ATCC 15442); experiment: as above; type: cell-based; conditions: Quat 5200 ppm, Cu 0 ppm in matte wall paint
Procedure: as §1

[3] = test system: Staphylococcus aureus (ATCC 6538); experiment: as above; type: cell-based; conditions: Quat 5200 ppm, Cu 0 ppm in matte wall paint
Procedure: as §1

[4] = test system: Pseudomonas aeruginosa (ATCC 15442); experiment: Interim EPA method with dry and chemical abrasion, Quat-containing matte wall paint; type: cell-based; conditions: Quat 5200 ppm, Cu 0 ppm; for 2 hr Contact Time % ↓ / 2 hr Contact Time Log10 ↓: relative to uncoated substrate
Procedure: (§2) The antibacterial efficacies of copper-containing composition in dry paint film were evaluated using an interim EPA method (Interim Method for Evaluating the Efficacy of Antimicrobial Surface Coatings: Oct. 2, 2020). […] The paints were drawn-down onto the sterilized steel substrate (1 inch by 1 inch of AISI type 304 stainless steel). The resulting coated substrate was dried at ambient condition for at least 24 hours. Some of the dried coated substrates were further subject to dry and chemical abrasion for 1 week residual efficacy claim. As for dry abrasion, the coated substrate was exposed to 10 cycles of dry abrasion by a Scotch Brite Non-Scratch Scrub Sponge using a BYK Gardner-Scrub machine, each of which comprises 16 single passes. As for chemical abrasion, the scrub sponge was soaked in sodium hypochlorite (2000 ppm NaOCl) solution and EPA-registered Quat-containing Nugen™ MB^5N-256 (256× dilution) disinfectant prior to the abrasion. The coated substrate was exposed to 10 cycles of chemical abrasion by the soaked scrub sponge, each of which comprises 8 single passes. After rinsing and drying to remove the residual NaOCl and Quat, each of two (2) bacterial inoculum ([…]): Staphylococcus aureus (ATCC 6538) and Pseudomonas aeruginosa (ATCC 15442) was used to inoculate the dry film of test paint to achieve 10^4 to 10^5 cfm/carrier of bacteria on dry surface of each test paint. The test paints were incubated at 22° C. and 30-40% RH for 2 hours. The degrees of bacterial contamination were determined via viable cell count for antibacterial efficacy relative to the uncoated substrate.

[5] = test system: Staphylococcus aureus (ATCC 6538); experiment: as above; type: cell-based; conditions: Quat 5200 ppm, Cu 0 ppm; for 2 hr Contact Time % ↓ / 2 hr Contact Time Log10 ↓: relative to uncoated substrate
Procedure: as §2

[6] = test system: Aspergillus niger (ATCC 6275), Aureobasidium pullulans (ATCC 9348) and Penicillium citrinum (ATCC 9849); experiment: ASTM resistance to growth of mold on interior coatings in an environmental chamber; type: cell-based; conditions: no Cu additive, Quat level 2000 ppm; 4 weeks in chamber
Procedure: Two coatings were brushed onto both faces and all edges of wood panel (allowing 1 day between coats). The resulting coated panels were dried at 23±2° C. and 50±5% relative humidity for 4 days. […] In the environmental chamber, the dried coated panels were hung vertically with the bottom approximately 3 inch above the surface of the inoculated soil and with sufficient spacing to allow free circulation of air and to prevent contact between panels or with wall surfaces. […] The degrees of fungal contamination were assessed using the rating scale in Table 9.

[7] = cited from earlier work

alkyl (50% C14, 10% C16, 40% C12) dimethyl benzyl ammonium chloride [Quat]
2 hr Contact Time Avg [1]: 1.4E+02
2 hr Contact Time Log10 [1]: 2.16
2 hr Contact Time Avg [2]: 2.9E+05
2 hr Contact Time Log10 [2]: 5.46
2 hr Contact Time Avg [3]: <1.5E+02
2 hr Contact Time Log10 [3]: <2.19
2 hr Contact Time Avg ([4]; Dry Abraded): 1.0E+2
2 hr Contact Time Log10 ([4]; Dry Abraded): 2.01
2 hr Contact Time % ↓ ([4]; Dry Abraded): 99.6285%
2 hr Contact Time Log10 ↓ ([4]; Dry Abraded): 2.43
2 hr Contact Time Avg ([4]; NaOCl Abraded): 1.4E+0
2 hr Contact Time Log10 ([4]; NaOCl Abraded): 0.16
2 hr Contact Time % ↓ ([4]; NaOCl Abraded): 99.9994%
2 hr Contact Time Log10 ↓ ([4]; NaOCl Abraded): 4.28
2 hr Contact Time Avg ([4]; Quat Abraded): 1.1E+2
2 hr Contact Time Log10 ([4]; Quat Abraded): 2.06
2 hr Contact Time % ↓ ([4]; Quat Abraded): 99.5831%
2 hr Contact Time Log10 ↓ ([4]; Quat Abraded): 2.38
2 hr Contact Time Avg ([4]; Unexposed): 1.7E+3
2 hr Contact Time Log10 ([4]; Unexposed): 3.23
2 hr Contact Time % ↓ ([4]; Unexposed): 93.8340%
2 hr Contact Time Log10 ↓ ([4]; Unexposed): 1.21
2 hr Contact Time Avg ([5]; Dry Abraded): 1.0E+0
2 hr Contact Time Log10 ([5]; Dry Abraded): 0.00
2 hr Contact Time % ↓ ([5]; Dry Abraded): 99.9990%
2 hr Contact Time Log10 ↓ ([5]; Dry Abraded): 5.00
2 hr Contact Time Avg ([5]; NaOCl Abraded): 1.0E+0
2 hr Contact Time Log10 ([5]; NaOCl Abraded): 0.00
2 hr Contact Time % ↓ ([5]; NaOCl Abraded): 99.9990%
2 hr Contact Time Log10 ↓ ([5]; NaOCl Abraded): 5.00
2 hr Contact Time Avg ([5]; Unexposed): 1.0E+0
2 hr Contact Time Log10 ([5]; Unexposed): 0.00
2 hr Contact Time % ↓ ([5]; Unexposed): 99.9990%
2 hr Contact Time Log10 ↓ ([5]; Unexposed): 5.00

CCCCCCCCCCCCN(C)C [Lauryl Dimethyl Amine, reference compound]
Avg Rating [6]: 2.7

On1ccccc1=S.On1ccccc1=S.[Cu] [copper pyrithione]
solubility [7]: 0.03 µg/mL
